According to ChEMBL document CHEMBL1201862, “PubChem BioAssay data set” (2004):
Active and inactive are the calls of the source.

How the values were obtained:
[1] = bead-based luminescence quenchers, dual-tagged ARNT – biochemical, AlphaScreen, cherry-pick, artefact control for ARNT-TACC3 interaction inhibitor project, dose response (AID 651705); format: functional;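 also: AlphaScreen bead proximity signal that flags compounds interfering with the detection technology; potency reflects signal decrease which marks the compound as an assay artifact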
Mu-type opioid receptor = Mu-type opioid receptor (Homo sapiens, UniProt P35372); format: functional, cell-based;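 also: U2OS cells with beta-arrestin recruitment to OPRM1 by beta-gal complementation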
[2] = target: 5-hydroxytryptamine receptor 2A (Mus musculus, UniProt P35363); format: functional, cell-based;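 also: CHO-K1 cells with tagged receptor and beta-arrestin; agonist potency measured as compound-induced activation of the receptor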
[3] = NIH-3T3 fibroblast cytotoxicity, dose response, cytotoxicity control, cell-based, fluorescence, Alamar Blue, secondary assay (AID 2327); format: functional;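 also: NIH-3T3 mouse fibroblasts cultured with fluconazole at 8 µg/mL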
[4] = fluconazole-exposed Candida albicans growth modulators – fluorescence, retest, confirmation (AID 2467); format: functional, cell-based
[5] = target: T1, Serine/threonine-protein phosphatase (Candida dubliniensis (strain CD36 / CBS 7987 / NCPF 3949 / NRRLY-17841) (Yeast), UniProt B9W6M3); assay: blockers of CaCl2-induced CDRE-lacZ signaling – S. cerevisiae, luminescence, secondary, dose response (AID 2388); format: functional, cell-based;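 also: yeast reporter cells carrying a calcineurin-responsive lacZ construct stimulated with calcium chloride; luminescent beta-galactosidase reporter signal in whole cells rather than isolated phosphatase activity; potency for inhibition where a drop in reporter signal means calcineurin blockade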
T1 sequence (B9W6M3 whole entry): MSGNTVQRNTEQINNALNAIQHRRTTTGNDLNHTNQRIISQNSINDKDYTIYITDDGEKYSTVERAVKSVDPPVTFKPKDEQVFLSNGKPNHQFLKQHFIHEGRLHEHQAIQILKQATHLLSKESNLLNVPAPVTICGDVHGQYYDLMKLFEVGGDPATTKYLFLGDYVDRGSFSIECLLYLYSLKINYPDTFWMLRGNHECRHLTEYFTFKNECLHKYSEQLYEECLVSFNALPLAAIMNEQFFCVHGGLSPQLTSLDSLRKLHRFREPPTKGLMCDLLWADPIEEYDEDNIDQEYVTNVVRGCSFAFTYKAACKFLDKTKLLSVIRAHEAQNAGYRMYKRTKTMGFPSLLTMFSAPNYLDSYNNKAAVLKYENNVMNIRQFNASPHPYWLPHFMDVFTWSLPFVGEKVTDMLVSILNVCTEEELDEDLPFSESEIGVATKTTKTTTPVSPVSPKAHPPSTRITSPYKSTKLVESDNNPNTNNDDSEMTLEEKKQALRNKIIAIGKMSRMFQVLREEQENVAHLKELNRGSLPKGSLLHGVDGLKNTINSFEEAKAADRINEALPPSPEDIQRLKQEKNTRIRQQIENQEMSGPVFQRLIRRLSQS

[6] = target: ATP-dependent molecular chaperone HSP82 (Candida albicans (strain WO-1) (Yeast), UniProt C4YTQ8); assay: steroid-induced GRE reporter decrease in yeast – S. cerevisiae, luminescence, Hsp90 inhibitor project, dose response (AID 2400); format: functional, cell-based;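 also: beta-galactosidase luminescence from glucocorticoid response element reporter as proxy for Hsp90 function; inhibitor potency where signal loss means Hsp90 inhibition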
[7] = target: SWI/SNF-related matrix-associated actin-dependent regulator of chromatin subfamily A member 2 (Homo sapiens, UniProt P51531); assay: Luminescence-based cell-based high throughput dose response assay to identify activators of the function of SWI/SNF related, matrix associated, actin dependent regulator of chromatin, subfamily a, member 2 (SMARCA2, BRM).; format: functional
[8] = Counterscreen for activators of the function of SWI/SNF related, matrix associated, actin dependent regulator of chromatin, subfamily a, member 2 (SMARCA2, BRM): Luminescence-based cell-based high throughput dose response assay to identify non-selective compounds using the VP16 reporter assay.; format: functional
[9] = viability of PTEN-deleted HCT116 cells – cell-based, HCT116 PTEN knockout, dose response (AID 1047); format: functional;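 also: HCT116 colon tumor cells with PTEN knocked out; cells exposed to compound for 60 hours before readout; potency for loss of cell viability measured by luminescence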
[10] = viability of HCT116 lacking mutant beta-catenin – cell-based, human colon tumor, dose response (AID 1045); format: functional;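 also: HCT116 colon tumor cells with beta catenin knocked out; cells exposed to compound for 60 hours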
[11] = target: Heat shock protein HSP 90-alpha (Homo sapiens, UniProt P07900); format: functional, organism-based
[12] = target: T2, Sentrin-specific protease 8 (Homo sapiens, UniProt Q96LD8); format: functional
T2 sequence (Q96LD8 whole entry): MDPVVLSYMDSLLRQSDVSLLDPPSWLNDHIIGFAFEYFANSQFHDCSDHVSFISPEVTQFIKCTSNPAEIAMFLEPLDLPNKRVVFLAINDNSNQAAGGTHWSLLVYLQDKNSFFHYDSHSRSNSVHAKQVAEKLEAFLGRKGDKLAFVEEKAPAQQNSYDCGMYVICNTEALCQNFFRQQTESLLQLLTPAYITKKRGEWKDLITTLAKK

[13] = target: T2, Sentrin-specific protease 8; format: functional; remark: listed apart in the source
[14] = target: T3, Polyadenylate-binding protein 1 (Homo sapiens, UniProt P11940); assay: MLLE binding blockers, Cy5 peptide tracer – biochemical, fluorescence polarization, Cy5-PAM2 peptide, secondary, miRNA deadenylation inhibitor project, dose response (AID 602260); format: functional; details: read-out: IC50_Mean
[15] = target: T3, Polyadenylate-binding protein 1; assay: MLLE domain peptide-binding blockers, IC50 – biochemical, fluorescence polarization, FITC-PAM2 peptide, dose response (AID 602259); format: functional; details: read-out: IC50_Mean
[16] = target: Disintegrin and metalloproteinase domain-containing protein 17 (Homo sapiens, UniProt P78536); assay: exosite inhibitors of ADAM17, dose response, biochemical (AID 743260)
[17] = target: T4, Adenosylmethionine-8-amino-7-oxononanoate aminotransferase (Mycobacterium tuberculosis, UniProt P9WQ81); assay: Mycobacterium tuberculosis BioA enzyme inhibitor Measured in Biochemical System Using Plate Reader - 2163-02_Inhibitor_Dose_CherryPick_Activity.; format: functional, Mycobacterium tuberculosis UT205
T4 sequence (P9WQ81 whole entry): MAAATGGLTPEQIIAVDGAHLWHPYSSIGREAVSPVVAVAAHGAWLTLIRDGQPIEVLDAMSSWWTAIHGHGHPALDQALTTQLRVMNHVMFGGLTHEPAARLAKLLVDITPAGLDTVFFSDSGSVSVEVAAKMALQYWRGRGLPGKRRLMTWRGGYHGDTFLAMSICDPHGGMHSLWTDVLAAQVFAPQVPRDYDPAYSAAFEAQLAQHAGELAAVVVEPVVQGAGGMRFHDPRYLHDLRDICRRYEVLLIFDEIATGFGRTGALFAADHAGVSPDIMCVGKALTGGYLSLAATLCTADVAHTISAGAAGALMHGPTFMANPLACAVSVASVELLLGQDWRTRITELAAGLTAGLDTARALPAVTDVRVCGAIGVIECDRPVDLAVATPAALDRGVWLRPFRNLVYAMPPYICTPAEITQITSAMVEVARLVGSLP

Interleukin-8 = target: T5, Interleukin-8 (Homo sapiens, UniProt P10145); assay: Dose Response confirmation of uHTS small molecule hits for cystic fibrosis induced NFkb Inhibitors in a PAF-induced IL8 counterscreen.; format: functional; details: read-out: IC50_Mean
T5 sequence (P10145 whole entry): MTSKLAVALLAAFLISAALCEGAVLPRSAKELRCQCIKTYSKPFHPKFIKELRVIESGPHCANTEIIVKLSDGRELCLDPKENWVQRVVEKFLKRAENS

Paired box protein Pax-8 = Paired box protein Pax-8 (Homo sapiens, UniProt Q06710); assay: PAX8 transcriptional activity inhibition in RMG-I – RMG-I cells, luciferase, cherry-pick, dose response (AID 687027); format: functional, cell-based;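 also: luciferase reporter driven by Pax8 target thyroperoxidase promoter measured by SteadyGlo luminescence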
[18] = IGROV1 cell killing – plate reader, dry powder samples, PAX8 inhibitor project, dose response (AID 743043); format: functional, cell-based; details: IGROV-1
[19] = microbe, parasite or virus in culture; format: functional; details: Mycobacterium tuberculosis
[20] = Luminescence Cell-Based Dose Retest to Confirm Inhibitors of Cancer Stem Cells. [Related pubchem assays (depositor defined):AID2717, AID2721]; format: functional; details: Homo sapiens
INS1 = assay: INS-1E survival protection against cytokine death – cell-based, luminescence, retest, dose response (AID 449756); format: functional; details: Rattus norvegicus;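 also: cell death triggered by IL-1 beta plus TNF-alpha plus IFN-gamma mixture; protective hits raise ATP signal compared with cytokine alone wells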
[21] = blockers of HIV-1 envelope-mediated cell-cell fusion – cherry-pick, dose response (AID 652057); format: functional, cell-based
[22] = viability loss in CEM21 cells – cell-based, CellTiter-Glo luminescence, cherry-picked, cytotoxicity control for viral fusion inhibitor project, dose response (AID 652042); format: functional;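 also: potency for signal decrease meaning cytotoxicity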
[23] = blockers of HIV-1 ZM109 envelope-driven cell-cell fusion – HeLa effector, CEM target cells, luciferase, cherry-pick, dose response (AID 652058); format: functional, cell-based;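 also: luciferase signal from HIV-1 Env mediated cell-cell fusion of effector and target cells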
[24] = HIV-1 AD8 envelope cell-cell fusion blockers – cherry-pick, dose response (AID 652062); format: functional, cell-based;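 also: luciferase signal from cell-cell fusion driven by HIV-1 clade B AD8 Env; potency is for inhibitors of fusion seen as a drop in luminescence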
[25] = OVCAR-3 cell viability loss – plate reader, dry powder samples, PAX8 inhibitor project, dose response (AID 743044); format: functional, cell-based
[26] = general cell-killing toxicity readout – plate reader, dry powder samples, cytotoxicity control for PAX8 inhibitor project, dose response (AID 743021); format: functional, cell-based
[27] = OVCAR8 cell viability loss – plate reader, dry powder samples, PAX8 project, dose response (AID 743197); format: functional, cell-based; details: OVCAR-8
[28] = HGIII-sPLA2 enzyme inhibition potency – biochemical, QFRET, IC50, dose response (AID 743457);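 also: green fluorescence rise as the enzyme cleaves BODIPY PC-A2 in liposomes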
[29] = target: T6, Oxysterols receptor LXR-beta (Homo sapiens, UniProt P55055); format: functional, cell-based;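 also: agonist activity at LXR measured by a cell-based luminescence readout across a dose range, run as a counterscreen for daf-12 agonists; HEK293 cells with Gal4-LXR fusion and GAL4-driven luciferase reporter; potency for activation of Gal4-LXR reporter so compounds are agonists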
T6 sequence (P55055 whole entry): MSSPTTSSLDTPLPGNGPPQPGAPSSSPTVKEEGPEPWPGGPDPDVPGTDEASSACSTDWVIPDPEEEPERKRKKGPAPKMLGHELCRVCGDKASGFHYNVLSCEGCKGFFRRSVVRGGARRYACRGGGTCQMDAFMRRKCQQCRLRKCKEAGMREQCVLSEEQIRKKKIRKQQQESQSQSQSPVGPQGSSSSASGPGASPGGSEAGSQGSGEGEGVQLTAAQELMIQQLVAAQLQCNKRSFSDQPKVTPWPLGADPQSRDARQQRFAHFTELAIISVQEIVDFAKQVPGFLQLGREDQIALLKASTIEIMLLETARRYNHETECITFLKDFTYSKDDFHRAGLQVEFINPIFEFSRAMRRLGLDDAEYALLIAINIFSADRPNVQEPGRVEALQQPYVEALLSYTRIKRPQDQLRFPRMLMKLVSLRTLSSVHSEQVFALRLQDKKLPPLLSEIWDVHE

cells = format: functional

Sequence of SWI/SNF-related matrix-associated actin-dependent regulator of chromatin subfamily A member 2 (P51531 whole entry): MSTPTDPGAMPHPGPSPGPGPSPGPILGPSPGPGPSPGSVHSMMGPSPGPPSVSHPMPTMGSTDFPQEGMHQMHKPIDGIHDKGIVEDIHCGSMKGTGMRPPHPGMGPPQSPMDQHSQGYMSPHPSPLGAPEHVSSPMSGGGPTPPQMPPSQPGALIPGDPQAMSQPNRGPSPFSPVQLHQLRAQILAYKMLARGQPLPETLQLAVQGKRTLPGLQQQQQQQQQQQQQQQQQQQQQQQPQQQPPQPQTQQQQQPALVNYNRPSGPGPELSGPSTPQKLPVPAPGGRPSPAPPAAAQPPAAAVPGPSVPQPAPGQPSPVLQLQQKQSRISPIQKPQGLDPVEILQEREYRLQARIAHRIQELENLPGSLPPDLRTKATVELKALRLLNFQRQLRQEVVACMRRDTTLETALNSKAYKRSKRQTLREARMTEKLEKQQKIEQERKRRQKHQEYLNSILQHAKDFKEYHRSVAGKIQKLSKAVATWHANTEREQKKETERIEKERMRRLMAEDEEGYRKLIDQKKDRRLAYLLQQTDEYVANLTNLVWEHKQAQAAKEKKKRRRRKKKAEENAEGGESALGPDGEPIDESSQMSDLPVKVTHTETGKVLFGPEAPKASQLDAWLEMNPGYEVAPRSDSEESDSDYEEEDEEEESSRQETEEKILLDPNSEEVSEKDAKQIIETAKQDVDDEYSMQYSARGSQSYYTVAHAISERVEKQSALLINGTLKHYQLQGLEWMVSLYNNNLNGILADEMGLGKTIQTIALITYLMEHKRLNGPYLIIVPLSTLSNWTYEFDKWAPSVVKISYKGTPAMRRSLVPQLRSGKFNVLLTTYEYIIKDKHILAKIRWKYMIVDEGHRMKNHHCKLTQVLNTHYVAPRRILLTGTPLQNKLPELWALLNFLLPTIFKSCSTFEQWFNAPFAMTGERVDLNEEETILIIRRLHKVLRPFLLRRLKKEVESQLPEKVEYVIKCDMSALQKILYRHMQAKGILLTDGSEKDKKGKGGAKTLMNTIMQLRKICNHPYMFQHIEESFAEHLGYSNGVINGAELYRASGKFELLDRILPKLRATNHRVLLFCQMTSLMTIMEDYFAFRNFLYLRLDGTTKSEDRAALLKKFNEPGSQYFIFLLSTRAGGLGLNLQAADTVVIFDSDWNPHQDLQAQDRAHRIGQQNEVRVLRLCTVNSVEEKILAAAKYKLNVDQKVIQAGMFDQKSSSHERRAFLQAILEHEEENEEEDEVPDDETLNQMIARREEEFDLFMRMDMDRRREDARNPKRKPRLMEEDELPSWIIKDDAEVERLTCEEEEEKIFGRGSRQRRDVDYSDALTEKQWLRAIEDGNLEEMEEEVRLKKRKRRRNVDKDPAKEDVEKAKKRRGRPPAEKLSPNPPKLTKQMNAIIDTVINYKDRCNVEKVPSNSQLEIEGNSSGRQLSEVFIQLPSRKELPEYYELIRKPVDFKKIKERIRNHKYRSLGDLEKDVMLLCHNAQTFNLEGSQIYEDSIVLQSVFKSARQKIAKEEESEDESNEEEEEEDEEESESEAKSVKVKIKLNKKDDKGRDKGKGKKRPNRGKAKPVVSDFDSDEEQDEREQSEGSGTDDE
Sequence of 5-hydroxytryptamine receptor 2A (P35363 whole entry): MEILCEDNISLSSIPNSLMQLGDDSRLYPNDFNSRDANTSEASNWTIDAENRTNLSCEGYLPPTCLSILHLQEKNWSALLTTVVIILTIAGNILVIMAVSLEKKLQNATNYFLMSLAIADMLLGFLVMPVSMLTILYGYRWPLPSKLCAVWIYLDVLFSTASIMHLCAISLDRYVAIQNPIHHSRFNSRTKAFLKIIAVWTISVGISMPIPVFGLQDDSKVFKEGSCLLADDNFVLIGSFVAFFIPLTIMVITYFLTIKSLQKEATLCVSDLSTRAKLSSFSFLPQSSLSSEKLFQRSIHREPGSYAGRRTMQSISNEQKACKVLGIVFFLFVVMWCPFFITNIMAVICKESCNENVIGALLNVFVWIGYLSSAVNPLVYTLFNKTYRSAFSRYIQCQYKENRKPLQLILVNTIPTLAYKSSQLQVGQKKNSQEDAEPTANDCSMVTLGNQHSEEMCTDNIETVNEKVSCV
Sequence of Mu-type opioid receptor (P35372 whole entry): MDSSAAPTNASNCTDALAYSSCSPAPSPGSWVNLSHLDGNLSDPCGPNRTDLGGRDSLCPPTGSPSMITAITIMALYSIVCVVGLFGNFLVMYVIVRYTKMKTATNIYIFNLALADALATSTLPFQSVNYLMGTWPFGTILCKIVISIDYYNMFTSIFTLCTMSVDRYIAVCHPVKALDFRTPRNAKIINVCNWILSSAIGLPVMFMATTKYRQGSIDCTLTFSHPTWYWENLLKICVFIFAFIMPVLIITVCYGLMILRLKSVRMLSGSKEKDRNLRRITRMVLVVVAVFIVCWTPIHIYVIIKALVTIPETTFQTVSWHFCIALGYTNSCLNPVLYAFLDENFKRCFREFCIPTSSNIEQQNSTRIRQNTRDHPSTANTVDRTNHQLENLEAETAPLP
T3 sequence (P11940 whole entry, the tested form may be a part): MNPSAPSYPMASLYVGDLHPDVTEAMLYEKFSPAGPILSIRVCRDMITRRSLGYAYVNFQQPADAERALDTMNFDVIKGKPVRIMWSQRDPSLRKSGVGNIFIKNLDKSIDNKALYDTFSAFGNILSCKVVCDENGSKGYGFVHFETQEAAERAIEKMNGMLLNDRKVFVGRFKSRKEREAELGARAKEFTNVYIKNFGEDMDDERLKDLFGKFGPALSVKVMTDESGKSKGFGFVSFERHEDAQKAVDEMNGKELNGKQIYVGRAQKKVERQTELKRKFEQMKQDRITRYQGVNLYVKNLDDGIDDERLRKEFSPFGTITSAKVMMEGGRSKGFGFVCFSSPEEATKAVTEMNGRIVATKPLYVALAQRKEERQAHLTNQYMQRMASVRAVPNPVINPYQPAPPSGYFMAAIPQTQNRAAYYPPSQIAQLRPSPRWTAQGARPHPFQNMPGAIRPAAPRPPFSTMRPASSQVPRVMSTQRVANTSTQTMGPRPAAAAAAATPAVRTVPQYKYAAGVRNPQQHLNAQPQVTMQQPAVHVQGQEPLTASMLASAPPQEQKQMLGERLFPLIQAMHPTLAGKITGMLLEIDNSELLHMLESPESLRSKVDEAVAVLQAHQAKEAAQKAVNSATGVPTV
Sequence of Paired box protein Pax-8 (Q06710 whole entry): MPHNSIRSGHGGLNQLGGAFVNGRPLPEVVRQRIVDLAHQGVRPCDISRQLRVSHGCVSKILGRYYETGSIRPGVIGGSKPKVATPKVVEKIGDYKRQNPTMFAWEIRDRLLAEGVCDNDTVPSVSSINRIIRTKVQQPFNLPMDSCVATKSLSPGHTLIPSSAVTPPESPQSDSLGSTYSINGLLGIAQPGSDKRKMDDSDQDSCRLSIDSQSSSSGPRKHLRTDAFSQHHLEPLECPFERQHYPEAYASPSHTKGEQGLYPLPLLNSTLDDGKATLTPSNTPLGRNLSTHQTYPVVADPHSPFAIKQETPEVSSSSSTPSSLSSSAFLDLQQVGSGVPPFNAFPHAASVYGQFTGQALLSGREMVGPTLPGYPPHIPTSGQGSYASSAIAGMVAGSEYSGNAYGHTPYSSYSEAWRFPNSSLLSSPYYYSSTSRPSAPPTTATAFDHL
Sequence of ATP-dependent molecular chaperone HSP82 (C4YTQ8 whole entry): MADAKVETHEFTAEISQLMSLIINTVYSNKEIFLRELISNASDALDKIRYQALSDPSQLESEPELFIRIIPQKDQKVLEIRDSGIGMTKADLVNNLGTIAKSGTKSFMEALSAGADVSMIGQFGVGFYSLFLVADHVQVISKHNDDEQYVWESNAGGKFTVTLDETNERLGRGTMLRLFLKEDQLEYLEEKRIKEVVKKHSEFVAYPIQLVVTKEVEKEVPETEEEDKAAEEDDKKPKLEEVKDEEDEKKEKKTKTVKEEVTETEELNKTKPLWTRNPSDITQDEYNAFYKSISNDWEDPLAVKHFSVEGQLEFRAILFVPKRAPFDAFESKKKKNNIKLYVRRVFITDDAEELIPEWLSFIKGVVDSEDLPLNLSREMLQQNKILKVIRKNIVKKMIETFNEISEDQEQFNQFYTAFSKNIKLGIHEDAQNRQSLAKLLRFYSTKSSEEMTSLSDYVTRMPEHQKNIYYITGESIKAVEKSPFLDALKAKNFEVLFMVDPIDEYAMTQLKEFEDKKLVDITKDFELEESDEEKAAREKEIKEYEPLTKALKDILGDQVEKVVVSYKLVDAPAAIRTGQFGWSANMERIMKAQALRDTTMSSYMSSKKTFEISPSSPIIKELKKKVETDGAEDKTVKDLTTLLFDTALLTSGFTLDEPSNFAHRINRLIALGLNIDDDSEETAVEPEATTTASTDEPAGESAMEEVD
Sequence of Disintegrin and metalloproteinase domain-containing protein 17 (P78536 whole entry, the tested form may be a part): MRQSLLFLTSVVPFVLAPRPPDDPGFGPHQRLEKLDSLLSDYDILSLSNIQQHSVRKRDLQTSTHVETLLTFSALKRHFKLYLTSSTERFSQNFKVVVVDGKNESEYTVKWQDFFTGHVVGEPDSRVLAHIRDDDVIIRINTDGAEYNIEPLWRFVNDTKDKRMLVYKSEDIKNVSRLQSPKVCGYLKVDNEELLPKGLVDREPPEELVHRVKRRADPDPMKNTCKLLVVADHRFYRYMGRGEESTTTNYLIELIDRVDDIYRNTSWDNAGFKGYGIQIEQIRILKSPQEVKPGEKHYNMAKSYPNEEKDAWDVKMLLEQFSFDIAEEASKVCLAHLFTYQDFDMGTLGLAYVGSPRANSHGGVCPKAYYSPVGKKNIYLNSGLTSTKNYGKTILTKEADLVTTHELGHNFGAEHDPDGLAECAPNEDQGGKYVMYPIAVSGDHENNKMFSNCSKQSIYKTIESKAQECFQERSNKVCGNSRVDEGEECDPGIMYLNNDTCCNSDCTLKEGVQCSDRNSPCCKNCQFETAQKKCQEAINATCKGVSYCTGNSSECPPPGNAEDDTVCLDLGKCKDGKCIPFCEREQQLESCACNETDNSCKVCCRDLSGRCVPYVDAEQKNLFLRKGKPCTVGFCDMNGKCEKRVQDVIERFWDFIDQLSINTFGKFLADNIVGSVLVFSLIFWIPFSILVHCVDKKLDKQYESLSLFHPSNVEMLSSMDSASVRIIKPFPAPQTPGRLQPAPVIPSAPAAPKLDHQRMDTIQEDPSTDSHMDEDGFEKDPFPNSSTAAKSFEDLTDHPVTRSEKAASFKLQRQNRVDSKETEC

For `CCOc1ccc(C(=O)CCNC(Cc2c[nH]cn2)C(=O)O)cc1` (stereo not drawn), the AC50 [1] was 124 µM (active).

In the case of `COc1ccccc1CN1CCN(C(=O)c2ccco2)CC1`, the EC50 (Mu-type opioid receptor) was 92.5 µM (inactive) and the EC50 [2] was 1.99 µM (active).

For `CC(=O)c1sc(NC(=O)CCS(=O)(=O)c2ccccc2)nc1C`, the EC50 [3] was > 150 µM (inactive), the EC50 [4] was 691 nM (active) and the EC50 [5] was > 180 µM (inactive). For the same compound, the EC50 [6] was > 150 µM (inactive), the EC50 [7] was > 91.1 µM (inactive) and the EC50 [8] was > 91.1 µM (inactive).

With `Cc1c(Cl)cccc1/N=C/c1ccc([N+](=O)[O-])s1` the EC50 [9] was 26.5 µM (active), the EC50 [10] was 40.3 µM (active) and the AC50 [11] was 7.37 µM (active). The IC50 [12] was 5.17 µM (active) and the IC50 [13] was 3.66 µM (active).

For `O=C(CC1SC(=O)N(c2ccccc2)C1=O)Nc1ccccc1` (stereo not drawn), the IC50 [14] was > 66 µM (inactive), the IC50 [15] was > 66 µM (inactive) and the IC50 [16] was 46.7 µM (inactive).

For `CC1CCCN(c2ccc(C(=O)Nc3cccnc3)cc2[N+](=O)[O-])C1` (stereo not drawn), the AC50 [17] was 1.11 µM (active).

In the case of `CCn1c2ccccc2c2cc(/C=N/O)ccc21`, the IC50 (Interleukin-8) was 7.06 µM (active).

For `C[C@@H]1CCCCO[C@H](CN(C)S(=O)(=O)c2cccs2)[C@@H](C)CN([C@@H](C)CO)C(=O)c2cc(NC(=O)Nc3ccc(C(F)(F)F)cc3)ccc2O1`, the AC50 (Paired box protein Pax-8) was 3.48 µM (active) and the AC50 [18] was 51.6 µM (active).

With `COc1ccc(C2/C=C\CN(C(=O)C3CCCC3)CC(=O)N2Cc2ccc(F)cc2)cc1` (stereo not drawn) the EC50 (Mu-type opioid receptor) was 92.5 µM (inactive) and the EC50 [2] was 76.1 µM (inactive).

For `CCOC(=O)[C@@H]1[C@H]2COc3cc(OC)ccc3[C@H]2N2C(=O)N(c3ccc(C(F)(F)F)cc3)C(=O)[C@]12C`, the CC50 [19] was 13.2 µM (active), the AC50 [20] was 3.05 µM (active) and the AC50 (INS1) was 7.32 µM (active). For the same compound, the AC50 [21] was 27.3 µM (active), the AC50 [22] was 27.7 µM (active) and the AC50 [23] was 38.8 µM (active). For the same compound, the AC50 [24] was 25 µM (active).

With `CC(=O)c1ccc(C(=O)N2CCCC(CO)(Cc3ccccc3C)C2)s1` (stereo not drawn) the AC50 [17] was 4.14 µM (active).

In the case of `C[C@H](CO)N1C[C@H](C)[C@@H](CN(C)S(=O)(=O)c2cccs2)OCCCC[C@H](C)Oc2ccc(NS(=O)(=O)c3ccc(Cl)cc3)cc2C1=O`, the AC50 (Paired box protein Pax-8) was 3.86 µM (active), the AC50 [25] was 29.4 µM (active) and the AC50 [18] was 66.4 µM (active). For the same compound, the AC50 [26] was 54.6 µM (active) and the AC50 [27] was > 70 µM (inactive).

In the case of `O=C(c1cc2ccccc2oc1=O)N1CCOCC1`, the EC50 [7] was > 91.2 µM (inactive) and the EC50 [8] was > 91.2 µM (inactive).

With `O=C(COC(=O)c1cccc(O)c1)c1ccccc1` the EC50 [7] was > 91.1 µM (inactive) and the EC50 [8] was > 91.1 µM (inactive).

With `Cc1cccc(NC(S)=NNC(=O)c2nn(C)cc2Cl)c1` the IC50 [28] was > 122 µM (inactive).

With `CCCCOc1ccc(CSC(=N)N)cc1Cl` the IC50 [28] was > 122 µM (inactive).

With `CCNC(=O)C1(C)CCCN(Cc2ccc(-c3ccccc3)o2)C1` (stereo not drawn) the IC50 (Interleukin-8) was > 79 µM (inactive).

With `CC(=O)N1CC[C@@H]2[C@@H](CO)N(C)c3ccc(-c4ccccc4)cc3[C@@H]21` the AC50 [17] was 8.17 µM (active).

With `CN(C)c1ccc2c(=O)c3ccccc3oc2n1` the EC50 [29] was > 67.6 µM (inactive).

With `Fc1ccc(-c2ccc(CNCc3ccccn3)o2)cc1Cl` the IC50 (cells) was 4.34 µM (active) and the AC50 [1] was 88.6 µM (active).

In the case of `Cc1ccc(NC(=O)CNCc2ccccn2)cc1S(=O)(=O)N(C)C`, the AC50 [1] was 127 µM (active).
